Experimental data published in patent US20220151935A1, “USE OF AMINO ACID BASED NUTRIENTS AND PHARMACEUTICAL COMPOSITION CONTAINING THE SAME” (priority 2018, published 2022).
Like-named read-outs stand apart in the source and are kept apart here.

Assays:
[1] = tested on: human head and neck cancer cells (Fμda); test: Tumor inhibition in nude mice bearing human head and neck cancer cells (Fμda); assay type: in vivo; conditions: Example 2; intratumoral 100 μl/mouse every 3 days x3; next day; avg tumor volume 109 mm^3
From the text: (§1) One of the core characteristics of tumors is heterogeneity. […] The corresponding negative control was normal saline.

[2] = tested on: human stomach cancer cells (BGC823); test: Tumor inhibition in nude mice bearing human stomach cancer cells (BGC823); conditions: Example 2; intratumoral 100 μl/mouse every 3 days x3; next day; avg tumor volume 85 mm^3
Method: (§3) The tumor growth inhibition rate (abbreviated as tumor inhibition rate in the present invention) is calculated through the following equation:
(§4) wherein TW is an average tumor weight of a study group; CW is an average tumor weight of a negative control group.
(§5) In the following experiments, the nude mice bearing human tumor cells and successfully modeled were randomly divided into 1 negative control group and 4 study groups (groups A, B, C, and D). The corresponding negative control was normal saline. […] Each group was injected intratumorally, once every 3 days, for a total of 3 times, each time with 100 μl/mouse. On the next day after the administration of drugs was ended, the animals were euthanized, the tumor weight was measured after anatomy, and the tumor inhibition rate was calculated from the respective negative control group.
In this research experiment, successfully modeled nude mice bearing human stomach cancer cells (BGC823) (with an average tumor volume of 85 mm^3) were randomly divided into a negative control group and 4 study groups (groups A, B, C, and D).

[3] = tested on: human nasopharynx cancer cells (CNE1); test: Tumor inhibition in nude mice bearing human nasopharynx cancer cells (CNE1); conditions: Example 2; intratumoral 100 μl/mouse every 3 days x3; next day; avg tumor volume 78 mm^3
Method: as §3, §4, §5
In this research experiment, successfully modeled nude mice bearing human nasopharynx cancer cells (CNE1) (with an average tumor volume of 78 mm^3) were randomly divided into a negative control group and 4 study groups (groups A, B, C, and D).

[4] = tested on: pancreatic cancer cells PANC-1; test: Tumor inhibition in nude mice bearing pancreatic cancer cells PANC-1; assay type: in vivo
Method: (§2) They were injected intraperitoneally and intratumorally.
After anatomy, the tumor weight was measured and the tumor inhibition rate was calculated.

[5] = tested on: pancreatic cancer cells PANC-1; conditions: once, 150 μl, next day, vs blank group
Method: Both groups A and B were administered the drugs once, with 150 μl each time. The next day after the administration of drug was ended, the 3 groups of animals were euthanized, and the tumors were dissected for histological observation.

[6] = tested on: human thyroid cancer cells (SW579); test: Tumor inhibition in nude mice bearing human thyroid cancer cells (SW579); conditions: Example 2; intratumoral 100 μl/mouse every 3 days x3; next day; avg tumor volume 103 mm^3
Method: as §3, §4
(§6) In the following experiments, the nude mice bearing human tumor cells and successfully modeled were randomly divided into 1 negative control group and 4 study groups (groups A, B, C, and D). The corresponding negative control was normal saline. The four study drugs were 20% arginine, 3% glutamic hydrochloride, 10% alanyl-glutamine, and 10% glutathione. Each group was injected intratumorally, once every 3 days, for a total of 3 times, each time with 100 μl/mouse. On the next day after the administration of drugs was ended, the animals were euthanized, the tumor weight was measured after anatomy, and the tumor inhibition rate was calculated from the respective negative control group.
(§7) In this series of experiments, successfully modeled nude mice bearing human cancer cells were randomly divided into 1 negative control group and 5 study groups (groups A, B, C, D and E). […] Each group was injected intratumorally, once every 3 days, for a total of 3 times, each time with 150 μl/mouse. On the next day after the administration was ended, the animals were euthanized, the tumor weight was measured after anatomy, and the tumor inhibition rate was calculated from the respective negative control group.
(§8) In this series of experiments, successfully modeled nude mice bearing human cancer cells were randomly divided into 1 negative control group and 6 study groups (groups A, B, C, D, E and F). […] Each group was injected intratumorally, once every 3 days, for a total of 3 times, each time with 100 μl/mouse. On the next day after the administration was ended, the animals were euthanized, the tumor weight was measured after anatomy, and the tumor inhibition rate was calculated from the respective negative control group.
(§9) In this series of experiments, successfully modeled nude mice bearing human cancer cells were randomly divided into 1 negative control group and 3 study groups. […] Each group was injected intratumorally, once every 3 days, for a total of 3 times, each time with 150 μl/mouse.

HepG2 = test: Intratumoral tissue destruction, histological observation of HepG2 tumors; conditions: Table 7; intratumoral injection, once, ≤130 μl/mouse; next day; scale 0 = blank control, 5 = 5% acetic acid
Method: The negative control group was given normal saline, and the compositions and injection methods of the 5 study drugs are shown in the table below. […] Each group was administered once, with an injection dose of ≤130 μl/mouse. On the next day after the administration was ended, the animals were euthanized, and the tumor was dissected for histological observation.
The negative control groups were given normal saline, and the compositions and injection methods of the 5 study drugs are shown in the table below. […] Each group was administered once, with an injection dose of ≤130 μl/mouse. On the next day after the administration was ended, the animals were euthanized, and the tumor was dissected for histological observation.

[7] = tested on: human liver cancer cells (HepG2); test: Tumor weight and tumor inhibition in nude mice bearing HepG2; assay type: in vivo; conditions: for Intratumoral injection Tumor inhibition rate / Intratumoral injection Tumor weight / Tumor inhibition rate of intraperitoneal injection: 5th day after last dose
Method: as §1, §2
The negative control group was given normal saline. The compositions of the study drug are as shown in the table below: 4 types and concentrations of amino acid based nutrient single drugs (X % amino acid based nutrients), 18 types and concentrations of ineffective absorption drugs (Y % ineffective absorption drugs), 24 compositions comprising various types and concentrations of amino acid based nutrients and ineffectively absorption drugs (X % amino acid based nutrients/Y % ineffectively absorption drugs).
The negative control was normal saline. The compositions of 16 study drugs, as shown in the table below, comprise: a 5-fluorouracil single drug of 4 varying concentrations (X % 5-fluorouracil), and an amino acid based nutrient with 5 varying concentrations (Y % amino acid based nutrient), 7 compositions consisting of 5-fluorouracil of varying concentrations and an amino acid based nutrient of varying concentrations (X % 5-fluorouracil/Y % amino acid based nutrient). […] The dose at each time was: 5-fluorouracil 50 mg/kg, glutathione ≤1 g/kg, and an injection volume was ≤150 μl/mouse.
The negative control was normal saline, the positive control was 1% 5-fluorouracil, and the study drug was 1% methylene blue/10% amino acid based nutrient composition (the type of the amino acid based nutrient is variable). The amino acid based nutrients in the compositions used in study groups 1-13 were: arginine, glycine, cysteine hydrochloride, valine, threonine, proline, histidine hydrochloride, phenylalanine, lysine, leucine, alanine, glutathione, serine, and the study drug used in the study group 14 was 1% methylene blue/5% arginine/5% glycine.

[8] = tested on: human breast cancer cells (MDA-MB231); test: Tumor inhibition in nude mice bearing human breast cancer cells (MDA-MB231); conditions: Example 2; intratumoral 100 μl/mouse every 3 days x3; next day; avg tumor volume 71 mm^3
Method: as §3, §4, §6
In this research experiment, successfully modeled nude mice bearing human breast cancer cells (MDA-MB231) (with an average tumor volume of 71 mm^3) were randomly divided into a negative control group and 4 study groups (groups A, B, C, and D).
Each group was injected intratumorally, once every 3 days, for a total of 3 times, each time with 150 μl/mouse. On the next day after the administration was ended, the animals were euthanized, the tumor weight was measured after anatomy, and the tumor inhibition rate was calculated from the respective negative control group.
Each group was injected intratumorally, once every 3 days, for a total of 3 times, each time with 100 μl/mouse. On the next day after the administration was ended, the animals were euthanized, the tumor weight was measured after anatomy, and the tumor inhibition rate was calculated from the respective negative control group.

[9] = tested on: human prostate cancer cells (LNCaP/AR); test: Tumor inhibition in nude mice bearing human prostate cancer cells (LNCaP/AR); conditions: Example 2; intratumoral 100 μl/mouse every 3 days x3; next day; avg tumor volume 91 mm^3
Method: as §3, §4, §6
In this research experiment, successfully modeled nude mice bearing human prostate cancer cells (LNCaP/AR) (with an average tumor volume of 91 mm^3) were randomly divided into a negative control group and 4 study groups (groups A, B, C, and D).
as §7, §8
In this series of experiments, successfully modeled nude mice bearing human cancer cells were randomly divided into 1 negative control group and 3 study groups. […] Each group was injected intratumorally, once every 3 days, for a total of 3 times, each time with 150 μl/mouse. On the fifth day after the administration was ended, the animals were euthanized, the tumor weight was measured after anatomy, and the tumor inhibition rate was calculated from the respective negative control group.

[10] = tested on: human lung cancer cells (A549); test: Tumor inhibition in nude mice bearing human lung cancer cells (A549); conditions: Example 2; intratumoral 100 μl/mouse every 3 days x3; next day; avg tumor volume 83 mm^3
Method: as §3, §4, §5
In this research experiment, successfully modeled nude mice bearing human lung cancer cells (A549) (with an average tumor volume of 83 mm^3) were randomly divided into a negative control group and 4 study groups (groups A, B, C, and D).

[11] = tested on: human ovary cancer cells (PA1); test: Tumor inhibition in nude mice bearing human ovary cancer cells (PA1); conditions: Example 2; intratumoral 100 μl/mouse every 3 days x3; next day; avg tumor volume 104 mm^3
Method: as §3, §4, §6, §7, §8, §9

[12] = Saturated concentration of 5-fluorouracil; assay type: physicochemical; conditions: aqueous solution
[13] = Table 3, avg tumor volume 105 mm^3, 100 μl/mouse every 3 days x3, next day after last dose
[14] = Table 6, avg tumor volume 153 mm^3, ≤120 μl/mouse every 3 days x3
[15] = Table 8, avg tumor volume 175 mm^3, ≤150 μl/mouse every 3 days x3

## N[C@@H](CCC(=O)N[C@@H](CS)C(=O)NCC(=O)O)C(=O)O [10% glutathione, Reduced glutathione]
[1]
  Tumor inhibition rate: 53%
[2]
  Tumor inhibition rate: 59%
[3]
  Tumor inhibition rate: 61%
[4]; [13]
  Tumor inhibition rate of intraperitoneal injection: 51%
  Tumor inhibition rate of intratumoral injection: 3%
[4]; Table 4, avg tumor volume 136 mm^3, intratumoral every 3 days x3, ≤150 μl, next day
  Tumor inhibition rate: 57%
[5]; intraperitoneal injection
  histological observation of the tumor: no obvious difference between group A and the blank group
[5]; intratumoral injection
  histological observation of the tumor: obvious intratumoral tissue destruction
[6]
  Tumor inhibition rate: 61%
HepG2
  Intratumoral tissue destruction: 1
[7]; Example 2, intratumoral 100 μl/mouse every 3 days x3, next day, avg tumor volume 81 mm^3
  Tumor inhibition rate: 61%
[7]; [14]
  Intratumoral injection Tumor inhibition rate: 58%
  Intratumoral injection Tumor weight: 0.97 ± 0.24 g
  Tumor inhibition rate of intraperitoneal injection: 3%
[7]; [15]
  Intratumoral injection Tumor inhibition rate: 59%
  Intratumoral injection Tumor weight: 1.04 ± 0.23 g
  Tumor inhibition rate of intraperitoneal injection: 1%
[7]; Table 16, avg tumor volume 169 mm^3, intratumoral every 3 days x3, ≤150 μl/mouse, 5th day
  Tumor inhibition rate: (62%)
[8]
  Tumor inhibition rate: 64%
[9]
  Tumor inhibition rate: 65%
[10]
  Tumor inhibition rate: 59%
[11]
  Tumor inhibition rate: 67%

## O=c1[nH]cc(F)c(=O)[nH]1 [5-fluorouracil]
[12]
  saturated concentration (Canti): about 1.5%
